Data: US20100204203A1, “Chemical Compounds 637: Pyridopyrimidinediones as PDE4 Inhibitors” (priority 2007, published 2010)

Each compound was assayed against recombinant Human Phosphodiesterase B2 (PDE4B2) (Homo sapiens, UniProt Q07343) (assay: Human Phosphodiesterase B2 Radiometric Assay (yttrium silicate SPA beads, [3H]cyclic AMP)). Details: recombinant human PDE4B2, radiometric SPA assay, 8 nM [3H]cyclic AMP; read-out: PDE4B2 pIC50 (converted).
Assay type: biochemical
Method in brief: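 Compounds were preincubated 30 min at 30 °C with 0.1 mg/mL PDE4B2 in 50 mM HEPES pH 7.5, 8.3 mM MgCl2, 1.7 mM EGTA, 0.01% Brij 35. Then 8 nM [3H]cAMP was added for 20 min, stopped with yttrium silicate SPA beads plus 18 mM ZnSO4 capturing product 5′AMP; pIC50 by curve fitting.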

recombinant Human Phosphodiesterase B2 (PDE4B2), sequence (Q07343 1-564 isoform Q07343-2): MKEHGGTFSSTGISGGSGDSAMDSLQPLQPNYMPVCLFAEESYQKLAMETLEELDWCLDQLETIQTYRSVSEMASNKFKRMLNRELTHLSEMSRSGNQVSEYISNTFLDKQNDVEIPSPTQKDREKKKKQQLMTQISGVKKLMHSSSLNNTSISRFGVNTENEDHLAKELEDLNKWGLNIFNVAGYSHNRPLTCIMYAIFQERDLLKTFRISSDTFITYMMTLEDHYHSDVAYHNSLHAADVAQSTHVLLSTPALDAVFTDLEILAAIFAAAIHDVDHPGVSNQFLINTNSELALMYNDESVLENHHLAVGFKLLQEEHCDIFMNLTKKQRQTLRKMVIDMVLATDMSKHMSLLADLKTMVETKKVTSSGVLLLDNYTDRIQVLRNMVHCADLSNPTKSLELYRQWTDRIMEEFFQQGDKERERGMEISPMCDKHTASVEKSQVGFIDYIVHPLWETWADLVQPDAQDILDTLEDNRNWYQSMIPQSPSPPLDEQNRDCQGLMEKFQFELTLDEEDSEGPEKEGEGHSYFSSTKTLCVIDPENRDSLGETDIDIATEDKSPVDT

| Structure (SMILES) | IC50 [nM] |
| --- | --- |
| Cc1cnc(C(=O)N[C@H]2CC[C@@H](n3c(=O)c4cc(F)cnc4n(-c4cccc(-c5ccc(CN6CCC(N7CCCCC7)CC6)cc5)c4)c3=O)CC2)cn1 [Example 297, N-{cis-4-[1-[4′-(1,4′-bipiperidin-1′-ylmethyl)biphenyl-3-yl]-6-fluoro-2,4-dioxo-1,4-dihydropyrido[2,3-d]pyrimidin-3(2H)-yl]cyclohexyl}-5-methylpyrazine-2-carboxamide] | 0.0316 |
| O=C(N[C@H]1CC[C@@H](n2c(=O)c3cc(F)cnc3n(-c3cccc(-c4ccc(CN5CCC(N6CCCCC6)CC5)cc4)c3)c2=O)CC1)c1nc2ccccc2[nH]1 [Example 298, N-{cis-4-[1-[4′-(1,4′-bipiperidin-1′-ylmethyl)biphenyl-3-yl]-6-fluoro-2,4-dioxo-1,4-dihydropyrido[2,3-d]pyrimidin-3(2R)-yl]cyclohexyl}-1H-benzimidazole-2-carboxamide] | 0.0316 |
| Cc1cccc(C(=O)N[C@H]2CC[C@@H](n3c(=O)c4cc(F)cnc4n(-c4cccc(-c5ccc(CN6CCC(N7CCCCC7)CC6)cc5)c4)c3=O)CC2)n1 [Example 299, N-{cis-4-[1-[4′-(1,4′-bipiperidin-1′-ylmethyl)biphenyl-3-yl]-6-fluoro-2,4-dioxo-1,4-dihydropyrido[2,3-d]pyrimidin-3(2H)-yl]cyclohexyl}-6-methylpyridine-2-carboxamide] | 0.0158 |
| C[C@@H]1CN(Cc2ccc(-c3cccc(-n4c(=O)n([C@H]5CC[C@@H](NC(=O)c6ccc7ccccc7n6)CC5)c(=O)c5cc(F)cnc54)c3)cc2)C[C@H](C)N1 [Example 300, N-{cis-4-[1-(4′-{[(3R,5S)-3,5-dimethylpiperazin-1-yl]methyl}biphenyl-3-yl)-6-fluoro-2,4-dioxo-1,4-dihydropyrido[2,3-d]pyrimidin-3(2H)-yl]cyclohexyl} quinoline-2-carboxamide] | 0.0316 |
| Cc1nc(C(=O)N[C@H]2CC[C@@H](n3c(=O)c4cc(F)cnc4n(-c4cccc(-c5ccc(CN6C[C@@H](C)N[C@@H](C)C6)cc5)c4)c3=O)CC2)cs1 [Example 301, N-{cis-4-[1-(4′-{[(3R,5S)-3,5-dimethylpiperazin-1-yl]methyl}biphenyl-3-yl)-6-fluoro-2,4-dioxo-1,4-dihydropyrido[2,3-d]pyrimidin-3(2H)-yl]cyclohexyl}-2-methyl-1,3-thiazole-4-carboxamide] | 0.0398 |
| CCCCc1ccc(C(=O)N[C@H]2CC[C@@H](n3c(=O)c4cc(F)cnc4n(-c4cccc(-c5ccc(CN6C[C@@H](C)N[C@@H](C)C6)cc5)c4)c3=O)CC2)nc1 [Example 302, 5-butyl-N-{cis-4-[1-(4′-{[(3R,5S)-3,5-dimethylpiperazin-1-yl]methyl}biphenyl-3-yl)-6-fluoro-2,4-dioxo-1,4-dihydropyrido[2,3-d]pyrimidin-3(2H)-yl]cyclohexyl} pyridine-2-carboxamide] | 0.1 |
| C[C@@H]1CN(Cc2ccc(-c3cccc(-n4c(=O)n([C@H]5CC[C@@H](NC(=O)c6cnc7ccccc7n6)CC5)c(=O)c5cc(F)cnc54)c3)cc2)C[C@H](C)N1 [Example 303, N-{cis-4-[1-(4′-{[(3R,5S)-3,5-dimethylpiperazin-1-yl]methyl}biphenyl-3-yl)-6-fluoro-2,4-dioxo-1,4-dihydropyrido[2,3-d]pyrimidin-3(2H)-yl]cyclohexyl} quinoxaline-2-carboxamide] | 0.02 |
| C[C@@H]1CN(Cc2ccc(-c3cccc(-n4c(=O)n([C@H]5CC[C@@H](NC(=O)c6cc7ccccc7cn6)CC5)c(=O)c5cc(F)cnc54)c3)cc2)C[C@H](C)N1 [Example 304, N-{cis-4-[1-(4′-{[(3R,5S)-3,5-dimethylpiperazin-1-yl]methyl}biphenyl-3-yl)-6-fluoro-2,4-dioxo-1,4-dihydropyrido[2,3-d]pyrimidin-3(2H)-yl]cyclohexyl} isoquinoline-3-carboxamide] | 0.0501 |
| C[C@@H]1CN(Cc2ccc(-c3cccc(-n4c(=O)n([C@H]5CC[C@@H](NC(=O)c6nc7ccccc7[nH]6)CC5)c(=O)c5cc(F)cnc54)c3)cc2)C[C@H](C)N1 [Example 305, N-{cis-4-[1-(4′-{[(3R,5S)-3,5-dimethylpiperazin-1-yl]methyl}biphenyl-3-yl)-6-fluoro-2,4-dioxo-1,4-dihydropyrido[2,3-d]pyrimidin-3(2H)-yl]cyclohexyl}-1H-benzimidazole-2-carboxamide] | 0.0501 |
| O=C(N[C@H]1CC[C@@H](n2c(=O)c3cc(F)cnc3n(-c3cccc(-c4ccc(CN5CCCOCC5)cc4)c3)c2=O)CC1)C1CC1 [Example 306, N-{cis-4-[6-fluoro-1-[4′-(1,4-oxazepan-4-ylmethyl)biphenyl-3-yl]-2,4-dioxo-1,4-dihydropyrido[2,3-d]pyrimidin-3(2H)-yl]cyclohexyl} cyclopropanecarboxamide] | 0.251 |
| O=C(N[C@H]1CC[C@@H](n2c(=O)c3cc(F)cnc3n(-c3cccc(-c4ccc(CN5CCCOCC5)cc4)c3)c2=O)CC1)c1ccc(OCCN2CCCC2)cc1 [Example 307, N-{cis-4-[6-fluoro-1-[4′-(1,4-oxazepan-4-ylmethyl)biphenyl-3-yl]-2,4-dioxo-1,4-dihydropyrido[2,3-d]pyrimidin-3(2H)-yl]cyclohexyl}-4-(2-pyrrolidin-1-ylethoxy)benzamide] | 2.51 |
| Cc1cccc(C(=O)N[C@H]2CC[C@@H](n3c(=O)c4cc(F)cnc4n(-c4cccc(-c5ccc(CN6CCCN(C)CC6)cc5)c4)c3=O)CC2)n1 [Example 308, N-{cis-4-[6-fluoro-1-{4′-[(4-methyl-1,4-diazepan-1-yl)methyl]biphenyl-3-yl}-2,4-dioxo-1,4-dihydropyrido[2,3-d]pyrimidin-3 (2H)-yl]cyclohexyl}-6-methylpyridine-2-carboxamide] | 0.0631 |
| Cc1nc(C(=O)N[C@H]2CC[C@@H](n3c(=O)c4cc(F)cnc4n(-c4cccc(-c5ccc(CN6CCCN(C)CC6)cc5)c4)c3=O)CC2)cs1 [Example 309, N-{cis-4-[6-fluoro-1-{4′-[(4-methyl-1,4-diazepan-1-yl)methyl]biphenyl-3-yl}-2,4-dioxo-1,4-dihydropyrido[2,3-d]pyrimidin-3(2H)-yl]cyclohexyl}-2-methyl-1,3-thiazole-4-carboxamide] | 0.1 |

Further lines, results first:

| IC50 [nM] | Structure (SMILES) |
| --- | --- |
| 0.126 | CN1CCCN(Cc2ccc(-c3cccc(-n4c(=O)n([C@H]5CC[C@@H](NC(=O)c6cc7c(o6)CCCC7=O)CC5)c(=O)c5cc(F)cnc54)c3)cc2)CC1 [Example 310, N-{cis-4-[6-fluoro-1-{4′-[(4-methyl-1,4-diazepan-1-yl)methyl]biphenyl-3-yl}-2,4-dioxo-1,4-dihydropyrido[2,3-d]pyrimidin-3(2H)-yl]cyclohexyl}-4-oxo-4,5,6,7-tetrahydro-1-benzofuran-2-carboxamide] |
| 1 | CN1CCCN(Cc2ccc(-c3cccc(-n4c(=O)n([C@H]5CC[C@@H](NC(=O)C(C)(C)N)CC5)c(=O)c5cc(F)cnc54)c3)cc2)CC1 [Example 311, N-{cis-4-[6-fluoro-1-{4′-[(4-methyl-1,4-diazepan-1-yl)methyl]biphenyl-3-yl}-2,4-dioxo-1,4-dihydropyrido[2,3-d]pyrimidin-3(2H)-yl]cyclohexyl}-2-methylalaninamide] |
| 0.2 | CN1CCCN(Cc2ccc(-c3cccc(-n4c(=O)n([C@H]5CC[C@@H](NC(=O)[C@@H](N)Cc6ccccc6)CC5)c(=O)c5cc(F)cnc54)c3)cc2)CC1 [Example 312, N-{cis-4-[6-fluoro-1-{4′-[(4-methyl-1,4-diazepan-1-yl)methyl]biphenyl-3-yl}-2,4-dioxo-1,4-dihydropyrido[2,3-d]pyrimidin-3(2H)-yl]cyclohexyl}-L-phenylalaninamide] |
| 0.398 | CC(C)[C@@H](N)C(=O)N[C@H]1CC[C@@H](n2c(=O)c3cc(F)cnc3n(-c3cccc(-c4ccc(CN5CCCN(C)CC5)cc4)c3)c2=O)CC1 [Example 313, N-{cis-4-[6-fluoro-1-{4′-[(4-methyl-1,4-diazepan-1-yl)methyl]biphenyl-3-yl}-2,4-dioxo-1,4-dihydropyrido[2,3-d]pyrimidin-3(2H)-yl]cyclohexyl}-D-valinamide] |
| 0.398 | CC(C)[C@H](N)C(=O)N[C@H]1CC[C@@H](n2c(=O)c3cc(F)cnc3n(-c3cccc(-c4ccc(CN5CCCN(C)CC5)cc4)c3)c2=O)CC1 [Example 314, N-{cis-4-[6-fluoro-1-{4′-[(4-methyl-1,4-diazepan-1-yl)methyl]biphenyl-3-yl}-2,4-dioxo-1,4-dihydropyrido[2,3-d]pyrimidin-3(2H)-yl]cyclohexyl}-L-valinamide] |
| 0.158 | COC[C@H](C)N(C)Cc1cc(O)ccc1-c1cccc(-n2c(=O)n([C@H]3CC[C@@H](NCc4cn5cc(F)ccc5n4)CC3)c(=O)c3cc(F)cnc32)c1 [Example 315, 6-fluoro-3-(cis-4-{[(6-fluoroimidazo[1,2-a]pyridin-2-yl)methyl]amino}cyclohexyl)-1-(4′-hydroxy-2′-{[[(1S)-2-methoxy-1-methylethyl](methyl)amino]methyl}biphenyl-3-yl)pyrido[2,3-d]pyrimidine-2,4(1H,3H)-dione] |
| 0.0316 | C[C@@H]1COCCN1Cc1cc(O)ccc1-c1cccc(-n2c(=O)n([C@H]3CC[C@@H](NCc4cn5cc(F)ccc5n4)CC3)c(=O)c3cc(F)cnc32)c1 [Example 316, 6-fluoro-3-(cis-4-{[(6-fluoroimidazo[1,2-a]pyridin-2-yl)methyl]amino}cyclohexyl)-1-(4′-hydroxy-2′-{[(3R)-3-methylmorpholin-4-yl]methyl}biphenyl-3-yl)pyrido[2,3-d]pyrimidine-2,4(1H,3H)-dione] |
| 0.01 | C[C@H]1COCCN1Cc1cc(O)ccc1-c1cccc(-n2c(=O)n([C@H]3CC[C@@H](NCc4cn5cc(F)ccc5n4)CC3)c(=O)c3cc(F)cnc32)c1 [Example 317, 6-fluoro-3-(cis-4-{[(6-fluoroimidazo[1,2-a]pyridin-2-yl)methyl]amino}cyclohexyl)-1-(4′-hydroxy-2′-{[(3S)-3-methylmorpholin-4-yl]methyl}biphenyl-3-yl)pyrido[2,3-d]pyrimidine-2,4(1H,3H)-dione] |
